Reference: patent US10208089B2, “Modulation of complement activity” (priority 2014, dated 2019)
Starred links: 1 amine or outer side, 2 acyl side, 3 side chain; linkers in the order of their positions; H or OH if unused. Positions of bridges follow the written chain, without caps; N, C: chain ends. Non-standard residues stand in square brackets, D forms with d. Residues, ends and D or L forms follow the SMILES beside them. Trp(7-aza) = N[C@@H](Cc1c[nH]c2ncccc12)C(=O)O; mXylylene = c1cc(C[*:1])cc(C[*:2])c1; pXylylene = c1cc(C[*:2])ccc1C[*:1]; hPhe = N[C@@H](CCc1ccccc1)C(=O)O; dChg = N[C@@H](C(=O)O)C1CCCCC1; Phg = N[C@H](C(=O)O)c1ccccc1; NMeS = CN[C@@H](CO)C(=O)O; hCys = N[C@@H](CCS)C(=O)O; Nva = CCC[C@H](N)C(=O)O; Aib = CC(C)(N)C(=O)O

target: C5 (Homo sapiens, UniProt P01031); test: Human hemolysis assay (RBC lysis assay using complete human sera); format: cell-based; parameters: with complete human sera (Complement Technology, Tyler Tex.) and polypeptides; tissue Complement Technology, Tyler Tex; host or cells: complete human serum; details: 7-azatryptophan variant polypeptides of R3002; inhibition of red blood cell lysis
Sequence (P01031 19-1676): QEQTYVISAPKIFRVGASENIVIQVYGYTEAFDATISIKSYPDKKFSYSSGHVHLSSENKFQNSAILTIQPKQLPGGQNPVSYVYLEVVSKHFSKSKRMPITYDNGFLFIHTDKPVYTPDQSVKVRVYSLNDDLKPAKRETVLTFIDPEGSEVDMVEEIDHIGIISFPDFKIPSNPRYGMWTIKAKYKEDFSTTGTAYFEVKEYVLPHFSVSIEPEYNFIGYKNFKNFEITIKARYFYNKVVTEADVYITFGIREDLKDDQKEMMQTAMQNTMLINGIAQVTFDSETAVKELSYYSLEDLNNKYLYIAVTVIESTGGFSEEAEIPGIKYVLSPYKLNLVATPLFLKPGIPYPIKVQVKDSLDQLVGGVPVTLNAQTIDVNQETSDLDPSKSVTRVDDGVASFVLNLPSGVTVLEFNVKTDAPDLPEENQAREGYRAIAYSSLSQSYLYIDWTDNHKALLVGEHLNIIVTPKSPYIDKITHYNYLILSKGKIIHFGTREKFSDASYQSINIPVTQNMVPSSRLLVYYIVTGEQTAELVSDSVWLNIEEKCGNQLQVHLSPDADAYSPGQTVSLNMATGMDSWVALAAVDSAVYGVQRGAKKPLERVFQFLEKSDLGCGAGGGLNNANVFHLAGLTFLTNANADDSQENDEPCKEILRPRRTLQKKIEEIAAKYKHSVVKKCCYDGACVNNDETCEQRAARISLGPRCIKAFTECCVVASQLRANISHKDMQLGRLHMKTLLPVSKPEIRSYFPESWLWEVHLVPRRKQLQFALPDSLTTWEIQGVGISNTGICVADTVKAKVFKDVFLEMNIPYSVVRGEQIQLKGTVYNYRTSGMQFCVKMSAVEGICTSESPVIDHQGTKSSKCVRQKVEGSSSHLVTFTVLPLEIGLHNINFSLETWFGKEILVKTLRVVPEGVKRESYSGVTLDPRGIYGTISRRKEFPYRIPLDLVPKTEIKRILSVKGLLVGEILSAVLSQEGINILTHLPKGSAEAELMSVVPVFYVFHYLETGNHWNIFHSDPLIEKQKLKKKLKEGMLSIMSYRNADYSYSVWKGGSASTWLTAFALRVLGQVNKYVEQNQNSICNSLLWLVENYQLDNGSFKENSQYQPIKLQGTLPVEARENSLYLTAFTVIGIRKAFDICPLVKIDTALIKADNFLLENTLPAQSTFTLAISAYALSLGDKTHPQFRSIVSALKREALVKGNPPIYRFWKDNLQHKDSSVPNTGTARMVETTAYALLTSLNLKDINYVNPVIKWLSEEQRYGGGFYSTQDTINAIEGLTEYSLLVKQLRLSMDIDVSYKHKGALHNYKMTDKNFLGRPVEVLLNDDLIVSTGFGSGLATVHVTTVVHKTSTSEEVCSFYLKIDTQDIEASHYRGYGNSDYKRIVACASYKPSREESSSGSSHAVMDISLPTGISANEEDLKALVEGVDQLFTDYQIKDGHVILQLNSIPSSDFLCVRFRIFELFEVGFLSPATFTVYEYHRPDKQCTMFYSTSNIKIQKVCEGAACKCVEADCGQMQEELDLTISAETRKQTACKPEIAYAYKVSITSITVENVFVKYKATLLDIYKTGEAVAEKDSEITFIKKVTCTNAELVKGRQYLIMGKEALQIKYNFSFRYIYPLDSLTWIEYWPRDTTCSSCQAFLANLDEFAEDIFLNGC

SMILES | IC50
CCC[C@H](NC(=O)[C@@H](NC(=O)[C@@H]1CCCN1C(=O)[C@H](Cc1ccc(O)cc1)NC(=O)[C@H](CCC(=O)O)NC(=O)[C@H](Cc1c[nH]c2ccc(OC)cc12)NC(=O)[C@H](Cc1ccc(O)cc1)NC(=O)[C@@H](NC(=O)[C@H](CC(N)=O)NC(=O)[C@H](CCC(=O)O)NC(=O)[C@H](Cc1ccc(O)cc1)NC(C)=O)C(C)(C)C)c1ccccc1)C(N)=O [Compound R3094, Ac-Y-E-N-Tbg-Y-(5-MeO)W-E-Y-P-Phg-Nvl-NH2] | > 100 µM

same assay, conditions: inhibition of lysis of antibody-sensitized sheep erythrocytes, complete human sera

SMILES | IC50
CCC[C@H](NC(=O)[C@@H]1CSCc2cccc(c2)CSC[C@H](NC(=O)[C@H](CCC)NC(C)=O)C(=O)N[C@H](C2CCCCC2)C(=O)N[C@@H]([C@@H](C)O)C(=O)N[C@@H](Cc2c[nH]c3ncccc23)C(=O)N[C@@H](CCC(=O)O)C(=O)N[C@@H](Cc2ccc(O)cc2)C(=O)N(C)[C@@H](CO)C(=O)N[C@@H](C)C(=O)N1)C(N)=O [Compound R3093, [mXylyl(2,10)]Ac-Nvl-C-(D-Chg)-T-azaTrp-E-Y-(N-Me)S-A-C-Nvl-NH2] (Ac-[Nva]C[dChg]T[Trp(7-aza)]EY[NMeS]AC[Nva]-NH2; linker 2-10 via mXylylene) | > 100 µM
CCC[C@H](NC(=O)[C@@H](NC(=O)[C@@H]1CCCN1C(=O)[C@H](Cc1ccc(O)cc1)NC(=O)[C@H](CCC(=O)O)NC(=O)[C@H](Cc1c[nH]c2ccc(OC)cc12)NC(=O)[C@H](Cc1ccc(O)cc1)NC(=O)[C@@H](NC(=O)[C@H](CC(N)=O)NC(=O)[C@H](CCC(=O)O)NC(=O)[C@H](Cc1ccc(O)cc1)NC(C)=O)C(C)(C)C)c1ccccc1)C(N)=O [Compound R3094, Ac-Y-E-N-Tbg-Y-(5-MeO)W-E-Y-P-Phg-Nvl-NH2] | > 100 µM
CCC[C@H](NC(=O)[C@@H]1CSCc2cccc(c2)CSC[C@H](NC(=O)[C@H](CCC)NC(C)=O)C(=O)N[C@@H](c2ccccc2)C(=O)N[C@@H]([C@@H](C)O)C(=O)N[C@@H](Cc2c[nH]c3ncccc23)C(=O)N[C@@H](CCC(=O)O)C(=O)N[C@@H](CCc2ccccc2)C(=O)N(C)[C@@H](CO)C(=O)N[C@@H](C)C(=O)N1)C(N)=O [Compound R3095, [mXyly1(2,10)]Ac-Nvl-C-Phg-T-azaTrp-E-(homo)F-(N-Me)S-A-C-Nvl-NH2] (Ac-[Nva]C[Phg]T[Trp(7-aza)]E[hPhe][NMeS]AC[Nva]-NH2; linker 2-10 via mXylylene) | > 50 µM
CCC[C@H](NC(=O)[C@@H]1CSCc2cccc(c2)CSC[C@H](NC(=O)[C@H](CCC)NC(C)=O)C(=O)N[C@@H](c2ccccc2)C(=O)NC(C)(C)C(=O)N[C@@H](Cc2c[nH]c3ncccc23)C(=O)N[C@@H](CCC(=O)O)C(=O)N[C@@H](Cc2ccc(O)cc2)C(=O)N(C)[C@@H](CO)C(=O)N[C@@H](Cc2c[nH]cn2)C(=O)N1)C(N)=O [Compound R3096, [mXylyl(2,10)]Ac-Nvl-C-Phg-Aib-azaTrp-E-Y-(N-Me)S-H-C-Nvl-NH2] (Ac-[Nva]C[Phg][Aib][Trp(7-aza)]EY[NMeS]HC[Nva]-NH2; linker 2-10 via mXylylene) | > 50 µM
CCC[C@H](NC(=O)[C@@H]1CSCc2cccc(c2)CSC[C@H](NC(=O)[C@H](CCC)NC(C)=O)C(=O)N[C@@H](c2ccccc2)C(=O)N[C@@H]([C@@H](C)O)C(=O)N[C@@H](Cc2c[nH]c3ncccc23)C(=O)N[C@@H](CC(=O)O)C(=O)N[C@@H](Cc2ccc(O)cc2)C(=O)N(C)[C@@H](CO)C(=O)N[C@@H](C)C(=O)N1)C(N)=O [Compound R3097, [mXylyl(2,10)]Ac-Nvl-C-Phg-T-azaTrp-D-Y-(N-Me)S-A-C-Nvl-NH2] (Ac-[Nva]C[Phg]T[Trp(7-aza)]DY[NMeS]AC[Nva]-NH2; linker 2-10 via mXylylene) | > 100 µM
CCC[C@H](NC(=O)[C@@H]1CSCc2cccc(c2)CSC[C@H](NC(=O)[C@H](CCC)NC(C)=O)C(=O)N[C@@H](c2ccccc2)C(=O)N[C@@H]([C@@H](C)O)C(=O)N[C@@H](Cc2c[nH]c3ncccc23)C(=O)N[C@@H](CCC(N)=O)C(=O)N[C@@H](Cc2ccc(O)cc2)C(=O)N(C)[C@@H](CO)C(=O)N[C@@H](C)C(=O)N1)C(N)=O [Compound R3098, [mXylyl(2,10)]Ac-Nvl-C-Phg-T-azaTrp-Q-Y-(N-Me)S-A-C-Nvl-NH2] (Ac-[Nva]C[Phg]T[Trp(7-aza)]QY[NMeS]AC[Nva]-NH2; linker 2-10 via mXylylene) | > 100 µM
CCC[C@H](NC(=O)[C@@H]1CSCc2cccc(c2)CSC[C@H](NC(=O)[C@H](CCC)NC(C)=O)C(=O)N[C@@H](c2ccccc2)C(=O)N[C@@H]([C@@H](C)O)C(=O)N[C@@H](Cc2c[nH]c3ncccc23)C(=O)N[C@@H](CC(N)=O)C(=O)N[C@@H](Cc2ccc(O)cc2)C(=O)N(C)[C@@H](CO)C(=O)N[C@@H](C)C(=O)N1)C(N)=O [Compound R3099, [mXylyl(2,10)]Ac-Nvl-C-Phg-T-azaTrp-N-Y-(N-Me)S-A-C-Nvl-NH2] (Ac-[Nva]C[Phg]T[Trp(7-aza)]NY[NMeS]AC[Nva]-NH2; linker 2-10 via mXylylene) | > 100 µM
CCC[C@H](NC(=O)[C@@H]1CSCc2cccc(c2)CSC[C@H](NC(=O)[C@H](CCC)NC(C)=O)C(=O)N[C@@H](c2ccccc2)C(=O)N[C@@H]([C@@H](C)O)C(=O)N[C@@H](Cc2c[nH]c3ncccc23)C(=O)N[C@@H](CCC(=O)O)C(=O)N[C@@H](Cc2ccccc2)C(=O)N(C)[C@@H](CO)C(=O)N[C@@H](C)C(=O)N1)C(N)=O [Compound R3100, [mXylyl(2,10)]Ac-Nvl-C-Phg-T-azaTrp-E-F-(N-Me)S-A-C-Nvl-NH2] (Ac-[Nva]C[Phg]T[Trp(7-aza)]EF[NMeS]AC[Nva]-NH2; linker 2-10 via mXylylene) | 0.626 µM
CCC[C@H](NC(=O)[C@@H]1CSCc2cccc(c2)CSC[C@H](NC(=O)[C@H](CCC)NC(C)=O)C(=O)N[C@@H](c2ccccc2)C(=O)N[C@@H]([C@@H](C)O)C(=O)N[C@@H](Cc2c[nH]c3ncccc23)C(=O)N[C@@H](CCC(=O)O)C(=O)N[C@@H](Cc2ccc(O)cc2)C(=O)N(C)[C@@H](CO)C(=O)N[C@@H](Cc2c[nH]cn2)C(=O)NCC(=O)N1)C(N)=O [Compound R3101, [mXylyl(2,10)]Ac-Nvl-C-Phg-T-azaTrp-E-Y-(N-Me)S-A-H-G-Nvl-NH2] (Ac-[Nva]C[Phg]T[Trp(7-aza)]EY[NMeS]HGC[Nva]-NH2; linker 2-11 via mXylylene) | > 100 µM
CCC[C@H](NC(=O)[C@@H]1CSCc2cccc(c2)CSC[C@H](NC(=O)[C@H](CCC)NC(C)=O)C(=O)N[C@@H](c2ccccc2)C(=O)N[C@@H]([C@@H](C)O)C(=O)N[C@@H](Cc2c[nH]c3ncccc23)C(=O)N[C@@H](CCC(=O)O)C(=O)N[C@@H](Cc2ccc(O)cc2)C(=O)N2CCC[C@H]2C(=O)N[C@@H](Cc2c[nH]cn2)C(=O)N1)C(N)=O [Compound R3102, [mXylyl(2,10)]Ac-Nvl-C-Phg-T-azaTrp-E-Y-P-H-C-Nvl-NH2] (Ac-[Nva]C[Phg]T[Trp(7-aza)]EYPHC[Nva]-NH2; linker 2-10 via mXylylene) | 0.978 µM
CCC[C@H](NC(=O)[C@@H]1CSCc2cccc(c2)CSCC[C@H](NC(=O)[C@H](CCC)NC(C)=O)C(=O)N[C@@H](c2ccccc2)C(=O)N[C@@H]([C@@H](C)O)C(=O)N[C@@H](Cc2c[nH]c3ncccc23)C(=O)N[C@@H](CCC(=O)O)C(=O)N[C@@H](Cc2ccc(O)cc2)C(=O)N(C)[C@@H](CO)C(=O)N[C@@H](Cc2c[nH]cn2)C(=O)N1)C(N)=O [Compound R3103, [mXylyl(2,10)]Ac-Nvl-homoC-Phg-T-azaTrp-E-Y-(N-Me)S-H-C-Nvl-NH2] (Ac-[Nva][hCys][Phg]T[Trp(7-aza)]EY[NMeS]HC[Nva]-NH2; linker 2-10 via mXylylene) | > 25 µM
CCC[C@H](NC(=O)[C@@H]1CSCc2ccc(cc2)CSCC[C@H](NC(=O)[C@H](CCC)NC(C)=O)C(=O)N[C@@H](c2ccccc2)C(=O)N[C@@H]([C@@H](C)O)C(=O)N[C@@H](Cc2c[nH]c3ncccc23)C(=O)N[C@@H](CCC(=O)O)C(=O)N[C@@H](Cc2ccc(O)cc2)C(=O)N(C)[C@@H](CO)C(=O)N[C@@H](Cc2c[nH]cn2)C(=O)N1)C(N)=O [Compound R3104, [pXylyl(2,10)]Ac-Nvl-homoC-Phg-T-azaTrp-E-Y-(N-Me)S-H-C-Nvl-NH2] (Ac-[Nva][hCys][Phg]T[Trp(7-aza)]EY[NMeS]HC[Nva]-NH2; linker 2-10 via pXylylene) | > 2 µM
CCC[C@H](NC(=O)[C@@H]1CCSCc2cccc(c2)CSC[C@H](NC(=O)[C@H](CCC)NC(C)=O)C(=O)N[C@@H](c2ccccc2)C(=O)N[C@@H]([C@@H](C)O)C(=O)N[C@@H](Cc2c[nH]c3ncccc23)C(=O)N[C@@H](CCC(=O)O)C(=O)N[C@@H](Cc2ccc(O)cc2)C(=O)N(C)[C@@H](CO)C(=O)N[C@@H](Cc2c[nH]cn2)C(=O)N1)C(N)=O [Compound R3105, [mXylyl(2,10)]Ac-Nvl-C-Phg-T-azaTrp-E-Y-(N-Me)S-H-homoC-Nvl-NH2] (Ac-[Nva]C[Phg]T[Trp(7-aza)]EY[NMeS]H[hCys][Nva]-NH2; linker 2-10 via mXylylene) | > 5 µM
CCC[C@H](NC(=O)[C@@H]1CCSCc2ccc(cc2)CSC[C@H](NC(=O)[C@H](CCC)NC(C)=O)C(=O)N[C@@H](c2ccccc2)C(=O)N[C@@H]([C@@H](C)O)C(=O)N[C@@H](Cc2c[nH]c3ncccc23)C(=O)N[C@@H](CCC(=O)O)C(=O)N[C@@H](Cc2ccc(O)cc2)C(=O)N(C)[C@@H](CO)C(=O)N[C@@H](Cc2c[nH]cn2)C(=O)N1)C(N)=O [Compound R3106, [pXylyl(2,10)]Ac-Nvl-C-Phg-T-azaTrp-E-Y-(N-Me)S-H-homoC-Nvl-NH2] (Ac-[Nva]C[Phg]T[Trp(7-aza)]EY[NMeS]H[hCys][Nva]-NH2; linker 2-10 via pXylylene) | > 5 µM
CCC[C@H](NC(=O)[C@@H]1CCSCc2cccc(c2)CSCC[C@H](NC(=O)[C@H](CCC)NC(C)=O)C(=O)N[C@@H](c2ccccc2)C(=O)N[C@@H]([C@@H](C)O)C(=O)N[C@@H](Cc2c[nH]c3ncccc23)C(=O)N[C@@H](CCC(=O)O)C(=O)N[C@@H](Cc2ccc(O)cc2)C(=O)N(C)[C@@H](CO)C(=O)N[C@@H](Cc2c[nH]cn2)C(=O)N1)C(N)=O [Compound R3107, [mXylyl(2,10)]Ac-Nvl-homoC-Phg-T-azaTrp-E-Y-(N-Me)S-H-homoC-Nvl-NH2] (Ac-[Nva][hCys][Phg]T[Trp(7-aza)]EY[NMeS]H[hCys][Nva]-NH2; linker 2-10 via mXylylene) | > 75 µM
